Experimental data: PubChem BioAssay AID2060617 (Molecular Pharmacology Branch, DTP, NCI, 2025)
Values joined by “and” are separate entries in the source; they are usually repeats but may differ in a detail not shown here. Equal entries are not always repeated.

Test system: 485368-065-R4-J2-PDC spheroids with HUVEC/MSC, viability
Experiment: Anticancer human tumor 485368-065-R4-J2-PDC patient-derived pancreatic carcinoma cell line growth inhibition [CLK]
Details: for viability, T/C: stronger effect = lower value; active means viability on the fitted dose curve at most 10% of control; inactive means the rest
Excerpt: A high-throughput screen of multi-cell type tumor spheroids was designed to identify active combinations of […] and targeted small molecules. Complex spheroids include a stromal component modeled by human endothelial cells (HUVEC) and fibroblasts modeled by human mesenchymal stem cells (MSCs). The concentration ranges selected for each drug and investigational agent were based upon clinically achievable concentrations if the clinical Cmax of the agent was known.
Compounds. The drugs and investigational agents: cirtuvivint (SM08502; NSC835563), CC-671 (NSC850746), vemurafenib (NSC761431), tapotoclax (NSC804041), sotorasib (NSC818433), adagrasib (NSC831453), MRTX-1133 (NSC836407), BAY2416964 (NSC825713), copanlisib (NSC816437), inavolisib (NSC800729), abemaciclib (NSC768073), osimertinib (NSC779217), entinostat (NSC756642), eltanexor (KPT-8602, NSC794443), venetoclax (NSC766270), ceralasertib (NSC777638), bortezomib (NSC756655), olaparib (NSC753686), talazoparib (NSC767125), alisertib (NSC759677), peposertib (NSC802822), gemcitabine (NSC613327), 5-fluorouracil (NSC19893), SN-38 (NSC673596), oxaliplatin (NSC266046), paclitaxel (NSC125973), and doxorubicin (NSC123127), were obtained from the National Cancer Institute (NCI) Developmental Therapeutics Program Chemical Repository. The FDA-approved anticancer drug set is available from the Developmental Therapeutics Program at https://dtp.cancer.gov/organization/dscb/obtaining/available plates.htm. […] The stock solutions were prepared in dimethyl sulfoxide (DMSO, Sigma-Aldrich, St. Louis, MO, cat. D2650), except for the platinum complexes which were prepared in saline (Quality Biological, Gaithersburg, MD, cat. 114-055-101), at 800-fold the tested concentration and stored at -70 degrees C prior to their use. All drugs and investigational agents were tested over a range starting from a high concentration at or near the clinical Cmax and decreasing in half-log increments. If the clinical Cmax for an agent had not been determined, the highest concentration tested was 10 microM.
Cell Culture. All cells were maintained in an incubator at 37 degrees C and 5% CO2 with 95% humidity. The PDC lines were cultured according to standard operating procedures established by the NCI PDMR. Briefly, all PDCs were thawed and cultured in Matrigel-coated flasks prepared with a working solution of 1X Ham's F-12 nutrient mix, without supplementation (Invitrogen, Waltham, MA, cat. 11765054), 100 U/mL penicillin-streptomycin (Invitrogen, cat. 15140122), and 2.5% Matrigel (Corning Inc., Corning, NY, cat. 354248) for the first three passages. The 947758-054-R-J2-PDC line was cultured in 6B/Colon 1A media, which includes advanced DMEM/F-12 (Thermo Fisher Scientific, cat. 12634028), 10 mM HEPES (Thermo Fisher Scientific, cat. 15630080), 1X GlutaMAX supplement (Thermo Fisher Scientific, cat. 35050061), 0.1 mg/mL primocin (InvivoGen, cat. ant-pm-2), 10% defined fetal bovine serum, heat inactivated (HyClone Laboratories Inc., cat. SH30070.03HI), 1.25 mM N-Acetyl-L-cysteine (Sigma-Aldrich, cat. A9165), 10 mM nicotinamide (Sigma-Aldrich, cat. N0636), 1X B-27 supplement (Thermo Fisher Scientific, cat. 17504044), 1X N-2 supplement (Thermo Fisher Scientific, cat. 17502048), and 10 microM Y-27632 dihydrochloride (Tocris Bioscience, cat. 1254). The 876862-298-R-J1-PDC was cultured in 6E media, which includes all 6B/Colon 1A media components plus 50% L-WRN conditioned media (ATCC, cat. CRL-3276), 50 ng/mL recombinant human EGF recombinant protein (hEGF; Thermo Fisher Scientific, cat. PHG0311), 10 ng/mL recombinant human fibroblast growth factor 10 (hGFG-10; PeproTech, cat. 100-26), 1 ng/mL recombinant human fibroblast growth factor 2 (hFGF-2; PeproTech, cat. 100-18B), and 1 µM prostaglandin E2 (PGE2; Tocris, cat. 2296). The 227483-062-R1-J1-PDC line was cultured in Panc media, containing all 6E components except hFGF-2, with the addition of 500 nM SB-431542 (Selleckchem, cat. S1067) and 10 nM gastrin (Tocris, cat. 3006). […]

[1] = curve of first compound, second compound 0.0316 µM
[2] = curve of first compound, second compound 0.1 µM
[3] = curve of first compound, second compound 0.316 µM
[4] = curve of first compound, second compound 1 µM
[5] = curve of first compound, second compound 3.16 µM
[6] = curve of first compound, second compound 10 µM
[7] = second compound 0.0316 µM, first compound 0.0316 µM
[8] = second compound 0.0316 µM, first compound 0.1 µM
[9] = second compound 0.0316 µM, first compound 0.316 µM
[10] = second compound 0.0316 µM, first compound 1 µM
[11] = second compound 0.0316 µM, first compound 3.16 µM
[12] = second compound 0.0316 µM, first compound 10 µM
[13] = second compound 0.1 µM, first compound 0.0316 µM
[14] = second compound 0.1 µM, first compound 0.1 µM
[15] = second compound 0.1 µM, first compound 0.316 µM
[16] = second compound 0.1 µM, first compound 1 µM
[17] = second compound 0.1 µM, first compound 3.16 µM
[18] = second compound 0.1 µM, first compound 10 µM
[19] = second compound 0.316 µM, first compound 0.0316 µM
[20] = second compound 0.316 µM, first compound 0.1 µM
[21] = second compound 0.316 µM, first compound 0.316 µM
[22] = second compound 0.316 µM, first compound 1 µM
[23] = second compound 0.316 µM, first compound 3.16 µM
[24] = second compound 0.316 µM, first compound 10 µM
[25] = second compound 1 µM, first compound 0.0316 µM
[26] = second compound 1 µM, first compound 0.1 µM
[27] = second compound 1 µM, first compound 0.316 µM
[28] = second compound 1 µM, first compound 1 µM
[29] = second compound 1 µM, first compound 3.16 µM
[30] = second compound 1 µM, first compound 10 µM
[31] = second compound 3.16 µM, first compound 0.0316 µM
[32] = second compound 3.16 µM, first compound 0.1 µM
[33] = second compound 3.16 µM, first compound 0.316 µM
[34] = second compound 3.16 µM, first compound 1 µM
[35] = second compound 3.16 µM, first compound 3.16 µM
[36] = second compound 3.16 µM, first compound 10 µM
[37] = second compound 10 µM, first compound 0.0316 µM
[38] = second compound 10 µM, first compound 0.1 µM
[39] = second compound 10 µM, first compound 0.316 µM
[40] = second compound 10 µM, first compound 1 µM
[41] = second compound 10 µM, first compound 3.16 µM
[42] = second compound 10 µM, first compound 10 µM
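Further: spheroids exposed to compounds for seven days.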
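Wherever viability, T/C is given: 100% = DMSO vehicle control wells.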

Nc1ccn(C2OC(CO)C(O)C2(F)F)c(=O)n1 (stereo not given) + CNC(=O)c1ccc(Nc2nc(OC3CCCC3)c3c(-c4ccc5nc(C)oc5c4)c[nH]c3n2)c(OC)c1
43.2 nM: IC50 [4]
73.2 nM: IC50 [1]
65.3 nM: IC50 [2]
inactive: viability, T/C [7] 66.8% | viability, T/C [8] 45% | viability, T/C [9] 32.3% | viability, T/C [10] 35.2% | viability, T/C [11] 33.5% | viability, T/C [12] 30.5% | viability, T/C [13] 62.8% | viability, T/C [14] 43.4% | viability, T/C [15] 31.1% | viability, T/C [16] 33.4% | viability, T/C [17] 32.4% | viability, T/C [18] 26.6% | viability, T/C [19] 59.8% | viability, T/C [20] 34% | viability, T/C [21] 27.5% | viability, T/C [22] 24.8% | viability, T/C [23] 25.1% | viability, T/C [24] 21.8% | viability, T/C [25] 58% | viability, T/C [26] 28.2% | viability, T/C [27] 20.7% | viability, T/C [28] 17.2% | viability, T/C [29] 16.1% | viability, T/C [30] 13.9% | viability, T/C [31] 51.8% | viability, T/C [32] 28.1% | viability, T/C [33] 18.7% | viability, T/C [34] 15.4% | viability, T/C [35] 14.5% | viability, T/C [36] 13.2% | viability, T/C [37] 50% | viability, T/C [38] 24.5% | viability, T/C [39] 18.6% | viability, T/C [40] 16% | viability, T/C [41] 13.3% | viability, T/C [42] 11.2%
49.3 nM: IC50 [3]
34.3 nM: IC50 [5]
< 31.6 nM: IC50 [6]

C=CC(=O)N1CCN(c2nc(=O)n(-c3c(C)ccnc3C(C)C)c3nc(-c4c(O)cccc4F)c(F)cc23)C(C)C1 (stereo not given) + CNC(=O)c1ccc(Nc2nc(OC3CCCC3)c3c(-c4ccc5nc(C)oc5c4)c[nH]c3n2)c(OC)c1
> 10000 nM: IC50 [1] | IC50 [2] | IC50 [3] | IC50 [4] | IC50 [5] | IC50 [6]
inactive: viability, T/C [7] 94% | viability, T/C [8] 110% | viability, T/C [9] 89.5% | viability, T/C [10] 103% | viability, T/C [11] 93.3% | viability, T/C [12] 98.9% | viability, T/C [13] 105% | viability, T/C [14] 98.5% | viability, T/C [15] 99.8% | viability, T/C [16] 109% | viability, T/C [17] 95.9% | viability, T/C [18] 88.8% | viability, T/C [19] 82% | viability, T/C [20] 92.5% | viability, T/C [21] 92.2% | viability, T/C [22] 95% | viability, T/C [23] 80.8% | viability, T/C [24] 72.8% | viability, T/C [25] 85% | viability, T/C [26] 87.9% | viability, T/C [27] 79.4% | viability, T/C [28] 82.8% | viability, T/C [29] 78.1% | viability, T/C [30] 75.7% | viability, T/C [31] 76.7% | viability, T/C [32] 69.7% | viability, T/C [33] 72.2% | viability, T/C [34] 73.8% | viability, T/C [35] 77.5% | viability, T/C [36] 69.8% | viability, T/C [37] 77.8% | viability, T/C [38] 76.4% | viability, T/C [39] 75% | viability, T/C [40] 74.4% | viability, T/C [41] 74.2% | viability, T/C [42] 67.4%

CNC(=O)c1ccc(Nc2nc(OC3CCCC3)c3c(-c4ccc5nc(C)oc5c4)c[nH]c3n2)c(OC)c1
inactive: viability, T/C (compound 0.0316 µM) 91.6% [middle of 12 runs] | viability, T/C (compound 0.1 µM) 96.7% [middle of 12 runs] | viability, T/C (compound 0.316 µM) 82.6% [middle of 12 runs] | viability, T/C (compound 1 µM) 70.9% [middle of 12 runs] | viability, T/C (compound 3.16 µM) 71.5% [middle of 12 runs] | viability, T/C (compound 10 µM) 76.5% [middle of 12 runs]
> 10000 nM: IC50 (compound alone, run of 08/15/2023)

C=CC(=O)Nc1cc(Nc2nccc(-c3cn(C)c4ccccc34)n2)c(OC)cc1N(C)CCN(C)C
> 300 nM: IC50 (curve of compound)
inactive: viability, T/C (compound 0.000949 µM) 109% and 99.5% | viability, T/C (compound 0.003 µM) 97.1% and 97.7% | viability, T/C (compound 0.00949 µM) 97.5% and 83.8% | viability, T/C (compound 0.03 µM) 104% and 97.5% | viability, T/C (compound 0.0949 µM) 110% and 96.7% | viability, T/C (compound 0.3 µM) 107% and 99.8%

O=C(c1cc(Cc2n[nH]c(=O)c3ccccc23)ccc1F)N1CCN(C(=O)C2CC2)CC1
> 10000 nM: IC50 (curve of compound)
inactive: viability, T/C (compound 0.0316 µM) 100% and 107% | viability, T/C (compound 0.1 µM) 97.7% and 89.2% | viability, T/C (compound 0.316 µM) 88.7% and 107% | viability, T/C (compound 1 µM) 98.2% and 104% | viability, T/C (compound 3.16 µM) 98.8% and 108% | viability, T/C (compound 10 µM) 89.5% and 94.8%
